# Assay results: article PMC7265341, “Quantifying CDK inhibitor selectivity in live cells” (Nature Communications, 2020)
# Where two headings read alike, the source gives them in different places.
# Tests used:
# [1] = molecular target: CDK1/Cyclin E1 (Homo sapiens, UniProt P06493); test: NanoBRET live-cell target engagement, CDK1-NanoLuc/Cyclin E1 in HEK-293; assay type: binding; details: CDK1/E1, read-out: Inhibition at 10µM (%)
# [2] = molecular target: CDK2/Cyclin E1 (Homo sapiens, UniProt P24941); test: NanoBRET live-cell target engagement, CDK2-NanoLuc/Cyclin E1 in HEK-293; assay type: binding; details: CDK2/E1, read-out: Inhibition at 10µM (%)
# [3] = molecular target: CDK3/Cyclin E1 (Homo sapiens, UniProt Q00526); test: NanoBRET live-cell target engagement, CDK3-NanoLuc/Cyclin E1 in HEK-293; assay type: binding; details: CDK3/E1, read-out: Inhibition at 10µM (%)
# [4] = molecular target: CDK4/Cyclin D1 (Homo sapiens, UniProt P11802); test: NanoBRET live-cell target engagement, NanoLuc-CDK4/Cyclin D1 in HEK-293; assay type: binding; details: CDK4/D1, read-out: Inhibition at 10µM (%)
# Chain of CDK4/Cyclin D1 (P11802 whole entry): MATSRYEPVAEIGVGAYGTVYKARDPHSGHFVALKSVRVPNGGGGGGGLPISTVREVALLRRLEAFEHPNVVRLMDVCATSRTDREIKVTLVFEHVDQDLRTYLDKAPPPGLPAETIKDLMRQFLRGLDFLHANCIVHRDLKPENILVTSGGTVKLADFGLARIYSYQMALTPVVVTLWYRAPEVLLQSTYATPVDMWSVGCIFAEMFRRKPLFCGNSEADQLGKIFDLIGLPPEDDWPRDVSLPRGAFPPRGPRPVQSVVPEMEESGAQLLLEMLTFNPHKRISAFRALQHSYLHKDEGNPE
# Chain of CDK4/Cyclin D1 (P24385 whole entry partner): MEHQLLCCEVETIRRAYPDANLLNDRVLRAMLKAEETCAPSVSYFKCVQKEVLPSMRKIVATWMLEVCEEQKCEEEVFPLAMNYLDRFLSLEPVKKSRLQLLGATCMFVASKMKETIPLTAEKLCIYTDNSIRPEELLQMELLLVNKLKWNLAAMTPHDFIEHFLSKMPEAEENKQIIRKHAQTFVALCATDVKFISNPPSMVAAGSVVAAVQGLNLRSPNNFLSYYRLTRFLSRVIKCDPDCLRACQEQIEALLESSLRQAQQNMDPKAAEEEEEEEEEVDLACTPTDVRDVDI
# [5] = molecular target: CDK5/CDK5R1 (Homo sapiens, UniProt Q00535); test: NanoBRET live-cell target engagement, CDK5-NanoLuc/CDK5R1 in HEK-293; assay type: binding; details: CDK5/CDK5R1, read-out: Inhibition at 10µM (%)
# [6] = molecular target: CDK6/Cyclin D1 (Homo sapiens, UniProt Q00534); test: NanoBRET live-cell target engagement, NanoLuc-CDK6/Cyclin D1 in HEK-293; assay type: binding; details: CDK6/D1, read-out: Inhibition at 10µM (%)
# [7] = molecular target: CDK8/Cyclin C (Homo sapiens, UniProt P49336); test: NanoBRET live-cell target engagement, NanoLuc-CDK8/Cyclin C in HEK-293; assay type: binding; details: CDK8/C, read-out: Inhibition at 10µM (%)
# [8] = molecular target: CDK9/Cyclin K (Homo sapiens, UniProt P50750); test: NanoBRET live-cell target engagement, NanoLuc-CDK9/Cyclin K in HEK-293; assay type: binding; details: CDK9/K; for inhibition at 10 µM: read-out: Inhibition at 10µM (%)
# Chain of CDK9/Cyclin K (P50750 whole entry): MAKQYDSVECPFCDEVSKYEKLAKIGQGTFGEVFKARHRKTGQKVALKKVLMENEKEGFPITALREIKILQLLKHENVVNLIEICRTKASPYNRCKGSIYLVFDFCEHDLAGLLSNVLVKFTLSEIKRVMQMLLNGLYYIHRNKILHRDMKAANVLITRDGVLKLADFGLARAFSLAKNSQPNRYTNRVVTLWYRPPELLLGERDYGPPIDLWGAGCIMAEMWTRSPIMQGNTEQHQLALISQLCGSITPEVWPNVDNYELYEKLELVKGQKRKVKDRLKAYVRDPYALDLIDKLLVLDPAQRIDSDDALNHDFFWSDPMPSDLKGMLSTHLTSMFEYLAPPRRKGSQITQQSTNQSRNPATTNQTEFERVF
# Chain of CDK9/Cyclin K (O75909 whole entry partner): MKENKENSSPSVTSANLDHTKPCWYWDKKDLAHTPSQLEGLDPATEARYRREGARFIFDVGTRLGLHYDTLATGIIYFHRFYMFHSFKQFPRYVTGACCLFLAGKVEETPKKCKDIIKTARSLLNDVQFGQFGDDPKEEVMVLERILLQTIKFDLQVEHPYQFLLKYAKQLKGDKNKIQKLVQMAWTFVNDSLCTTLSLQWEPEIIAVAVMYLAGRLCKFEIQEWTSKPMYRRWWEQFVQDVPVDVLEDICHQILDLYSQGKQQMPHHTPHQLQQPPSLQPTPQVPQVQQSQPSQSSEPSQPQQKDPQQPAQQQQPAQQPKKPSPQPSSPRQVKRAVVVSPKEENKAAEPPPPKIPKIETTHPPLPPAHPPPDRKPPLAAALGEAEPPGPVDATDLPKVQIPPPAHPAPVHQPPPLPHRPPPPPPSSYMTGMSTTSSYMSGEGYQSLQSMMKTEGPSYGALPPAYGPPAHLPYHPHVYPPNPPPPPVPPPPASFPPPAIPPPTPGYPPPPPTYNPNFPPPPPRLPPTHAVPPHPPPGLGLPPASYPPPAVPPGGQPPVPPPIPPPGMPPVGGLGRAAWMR
# [9] = molecular target: T1, CDK11A/Cyclin L2 (Homo sapiens, UniProt Q9UQ88); test: NanoBRET live-cell target engagement, CDK11A-NanoLuc/Cyclin L2 in HEK-293; assay type: binding; details: CDK11a/L2; for IC50: read-out: IC50; for inhibition at 10 µM: read-out: Inhibition at 10µM (%)
# T1 sequence (Q9UQ88 1-783): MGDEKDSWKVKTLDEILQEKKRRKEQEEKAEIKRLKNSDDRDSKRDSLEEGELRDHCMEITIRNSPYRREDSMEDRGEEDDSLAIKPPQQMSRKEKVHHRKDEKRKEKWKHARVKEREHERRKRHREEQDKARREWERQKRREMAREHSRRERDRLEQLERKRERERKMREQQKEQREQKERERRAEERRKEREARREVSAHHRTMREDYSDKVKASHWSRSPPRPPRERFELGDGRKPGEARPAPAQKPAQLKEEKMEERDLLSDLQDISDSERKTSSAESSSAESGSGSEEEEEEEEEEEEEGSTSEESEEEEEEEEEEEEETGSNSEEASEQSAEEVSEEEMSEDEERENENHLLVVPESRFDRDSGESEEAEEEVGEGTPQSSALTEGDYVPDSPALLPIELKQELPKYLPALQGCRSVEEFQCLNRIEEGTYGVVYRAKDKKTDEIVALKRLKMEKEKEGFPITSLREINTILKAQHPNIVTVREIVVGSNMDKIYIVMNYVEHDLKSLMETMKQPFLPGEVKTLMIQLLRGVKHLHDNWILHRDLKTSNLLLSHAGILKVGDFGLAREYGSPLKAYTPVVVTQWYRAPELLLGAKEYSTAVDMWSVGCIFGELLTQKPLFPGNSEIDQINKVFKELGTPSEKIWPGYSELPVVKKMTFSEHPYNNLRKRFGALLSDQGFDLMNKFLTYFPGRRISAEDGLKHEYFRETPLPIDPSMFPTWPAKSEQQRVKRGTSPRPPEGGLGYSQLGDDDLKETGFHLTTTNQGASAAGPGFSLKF
# [10] = molecular target: CDK11B/Cyclin L2 (Homo sapiens, UniProt P21127); test: NanoBRET live-cell target engagement, CDK11B-NanoLuc/Cyclin L2 in HEK-293; assay type: binding; details: CDK11b/L2; for IC50: read-out: IC50; for inhibition at 10 µM: read-out: Inhibition at 10µM (%)
# Chain of CDK11B/Cyclin L2 (P21127 1-782 isoform P21127-2): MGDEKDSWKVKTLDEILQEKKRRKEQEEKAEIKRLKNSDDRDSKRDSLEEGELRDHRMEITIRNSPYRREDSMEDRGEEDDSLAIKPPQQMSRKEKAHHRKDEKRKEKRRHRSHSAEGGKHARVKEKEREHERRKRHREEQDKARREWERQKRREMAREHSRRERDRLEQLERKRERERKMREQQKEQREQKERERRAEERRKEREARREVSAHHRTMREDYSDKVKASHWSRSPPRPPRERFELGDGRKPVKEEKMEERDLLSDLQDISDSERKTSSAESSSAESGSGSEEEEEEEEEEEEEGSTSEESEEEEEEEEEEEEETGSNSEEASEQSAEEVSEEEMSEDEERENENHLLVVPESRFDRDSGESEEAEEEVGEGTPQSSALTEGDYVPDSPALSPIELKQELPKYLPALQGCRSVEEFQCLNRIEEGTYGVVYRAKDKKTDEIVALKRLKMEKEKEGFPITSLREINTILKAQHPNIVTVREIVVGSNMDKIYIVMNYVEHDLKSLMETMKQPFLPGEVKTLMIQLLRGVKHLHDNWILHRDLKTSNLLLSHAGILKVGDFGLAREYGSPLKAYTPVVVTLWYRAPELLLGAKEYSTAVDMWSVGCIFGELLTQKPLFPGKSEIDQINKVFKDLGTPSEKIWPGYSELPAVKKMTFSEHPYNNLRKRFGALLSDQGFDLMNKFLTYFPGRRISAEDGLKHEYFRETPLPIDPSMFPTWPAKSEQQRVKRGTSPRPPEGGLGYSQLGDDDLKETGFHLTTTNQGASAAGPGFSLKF
# [11] = molecular target: CDK12/Cyclin K (Homo sapiens, UniProt Q9NYV4); test: NanoBRET live-cell target engagement, CDK12-NanoLuc/Cyclin K in HEK-293; assay type: binding; details: read-out: Inhibition at 10µM (%), CDK12/K
# [12] = molecular target: CDK13/Cyclin K (Homo sapiens, UniProt Q14004); test: NanoBRET live-cell target engagement, CDK13-NanoLuc/Cyclin K in HEK-293; assay type: binding; details: CDK13/K, read-out: Inhibition at 10µM (%)
# [13] = molecular target: CDK15/Cyclin Y (Homo sapiens, UniProt Q96Q40); test: NanoBRET live-cell target engagement, NanoLuc-CDK15/Cyclin Y in HEK-293; assay type: binding; details: CDK15/Y; for IC50: read-out: IC50; for inhibition at 10 µM: read-out: Inhibition at 10µM (%)
# [14] = molecular target: CDK16/Cyclin Y (Homo sapiens, UniProt Q00536); test: NanoBRET live-cell target engagement, CDK16-NanoLuc/Cyclin Y in HEK-293; assay type: binding; details: CDK16/Y; for IC50: read-out: IC50; for inhibition at 10 µM: read-out: Inhibition at 10µM (%)
# [15] = molecular target: CDK17/Cyclin Y (Homo sapiens, UniProt Q00537); test: NanoBRET live-cell target engagement, CDK17-NanoLuc/Cyclin Y in HEK-293; assay type: binding; details: CDK17/Y; for IC50: read-out: IC50; for inhibition at 10 µM: read-out: Inhibition at 10µM (%)
# Chain of CDK17/Cyclin Y (Q00537 whole entry): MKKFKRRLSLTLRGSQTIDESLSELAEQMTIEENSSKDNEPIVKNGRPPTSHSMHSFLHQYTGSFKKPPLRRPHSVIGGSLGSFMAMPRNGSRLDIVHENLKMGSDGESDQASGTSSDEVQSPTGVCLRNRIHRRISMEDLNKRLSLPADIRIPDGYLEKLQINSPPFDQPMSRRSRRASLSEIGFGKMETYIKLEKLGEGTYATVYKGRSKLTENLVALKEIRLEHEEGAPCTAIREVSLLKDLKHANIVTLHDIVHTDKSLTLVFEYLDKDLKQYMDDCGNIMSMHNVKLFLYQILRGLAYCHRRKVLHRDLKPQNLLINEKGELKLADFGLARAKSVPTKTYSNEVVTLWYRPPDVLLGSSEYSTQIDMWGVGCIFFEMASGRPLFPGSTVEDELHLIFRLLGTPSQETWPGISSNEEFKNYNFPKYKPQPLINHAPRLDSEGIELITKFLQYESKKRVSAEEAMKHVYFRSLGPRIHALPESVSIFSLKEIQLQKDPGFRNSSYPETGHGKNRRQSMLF
# Chain of CDK17/Cyclin Y (Q8ND76 whole entry partner): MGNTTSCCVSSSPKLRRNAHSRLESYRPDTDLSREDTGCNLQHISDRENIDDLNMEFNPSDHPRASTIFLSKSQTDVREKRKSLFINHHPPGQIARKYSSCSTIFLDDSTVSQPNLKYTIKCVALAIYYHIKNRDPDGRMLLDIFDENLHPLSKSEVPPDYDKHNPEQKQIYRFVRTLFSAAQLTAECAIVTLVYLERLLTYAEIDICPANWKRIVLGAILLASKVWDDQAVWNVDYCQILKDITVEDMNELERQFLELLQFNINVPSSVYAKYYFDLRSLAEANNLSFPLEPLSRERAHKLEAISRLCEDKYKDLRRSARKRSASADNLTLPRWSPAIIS
# [16] = molecular target: CDK18/Cyclin Y (Homo sapiens, UniProt Q07002); test: NanoBRET live-cell target engagement, CDK18-NanoLuc/Cyclin Y in HEK-293; assay type: binding; details: for IC50: read-out: IC50
# Chain of CDK18/Cyclin Y (Q07002 whole entry): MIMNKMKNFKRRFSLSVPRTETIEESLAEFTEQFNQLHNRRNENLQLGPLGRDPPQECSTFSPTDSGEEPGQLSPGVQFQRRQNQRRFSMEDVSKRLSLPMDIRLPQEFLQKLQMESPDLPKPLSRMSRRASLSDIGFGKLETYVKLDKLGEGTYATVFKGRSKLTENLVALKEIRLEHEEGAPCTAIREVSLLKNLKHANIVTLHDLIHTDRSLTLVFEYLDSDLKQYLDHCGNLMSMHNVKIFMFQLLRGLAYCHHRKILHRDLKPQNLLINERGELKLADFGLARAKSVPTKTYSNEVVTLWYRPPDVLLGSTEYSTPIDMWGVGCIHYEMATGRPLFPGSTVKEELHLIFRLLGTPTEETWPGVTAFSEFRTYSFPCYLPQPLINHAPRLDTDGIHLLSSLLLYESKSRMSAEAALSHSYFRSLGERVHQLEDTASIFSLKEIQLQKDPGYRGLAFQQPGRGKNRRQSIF
# Chain of CDK18/Cyclin Y (Q8ND76 whole entry partner): as the sequence (Q8ND76 whole entry partner) above
# [17] = molecular target: CDK20/Cyclin H (Homo sapiens, UniProt Q8IZL9); test: NanoBRET live-cell target engagement, NanoLuc-CDK20/Cyclin H in HEK-293; assay type: binding; details: CDK20/H, read-out: Inhibition at 10µM (%)
# [18] = molecular target: CDK19/Cyclin C (Homo sapiens, UniProt Q9BWU1); test: NanoBRET live-cell target engagement, NanoLuc-CDK19/Cyclin C in HEK-293; details: read-out: Inhibition at 10µM (%), CDK19/C
# Chain of CDK19/Cyclin C (Q9BWU1 whole entry): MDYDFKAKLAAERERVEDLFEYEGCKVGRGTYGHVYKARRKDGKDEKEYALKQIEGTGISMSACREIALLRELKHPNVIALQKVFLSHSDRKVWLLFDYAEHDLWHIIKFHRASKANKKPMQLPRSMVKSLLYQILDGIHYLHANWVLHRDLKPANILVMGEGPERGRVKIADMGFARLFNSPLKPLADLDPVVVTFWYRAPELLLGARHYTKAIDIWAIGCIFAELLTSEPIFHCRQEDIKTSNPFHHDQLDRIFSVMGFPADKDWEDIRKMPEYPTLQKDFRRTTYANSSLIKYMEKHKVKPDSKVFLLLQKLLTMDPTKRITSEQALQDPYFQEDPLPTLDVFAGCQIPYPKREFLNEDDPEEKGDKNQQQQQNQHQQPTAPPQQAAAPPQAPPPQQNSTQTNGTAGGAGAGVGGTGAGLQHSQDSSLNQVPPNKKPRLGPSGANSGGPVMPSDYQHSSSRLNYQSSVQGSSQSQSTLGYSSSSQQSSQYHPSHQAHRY
# Chain of CDK19/Cyclin C (P24863 whole entry partner): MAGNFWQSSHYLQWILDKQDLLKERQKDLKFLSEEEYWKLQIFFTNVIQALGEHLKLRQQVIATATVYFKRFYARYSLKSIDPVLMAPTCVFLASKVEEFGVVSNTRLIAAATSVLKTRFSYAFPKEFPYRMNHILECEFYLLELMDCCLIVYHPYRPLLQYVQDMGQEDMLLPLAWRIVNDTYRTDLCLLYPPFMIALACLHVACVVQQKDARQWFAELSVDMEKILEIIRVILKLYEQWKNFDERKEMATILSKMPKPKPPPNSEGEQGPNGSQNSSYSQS
# [19] = molecular target: CDK10/Cyclin L2 (Homo sapiens, UniProt Q15131); test: NanoBRET live-cell target engagement, CDK10-NanoLuc/Cyclin L2 in HEK-293; details: for IC50: IC50 (nM), CDK10/L2; for inhibition at 10 µM: read-out: Inhibition at 10µM (%), CDK10/L2
# Chain of CDK10/Cyclin L2 (Q15131 whole entry): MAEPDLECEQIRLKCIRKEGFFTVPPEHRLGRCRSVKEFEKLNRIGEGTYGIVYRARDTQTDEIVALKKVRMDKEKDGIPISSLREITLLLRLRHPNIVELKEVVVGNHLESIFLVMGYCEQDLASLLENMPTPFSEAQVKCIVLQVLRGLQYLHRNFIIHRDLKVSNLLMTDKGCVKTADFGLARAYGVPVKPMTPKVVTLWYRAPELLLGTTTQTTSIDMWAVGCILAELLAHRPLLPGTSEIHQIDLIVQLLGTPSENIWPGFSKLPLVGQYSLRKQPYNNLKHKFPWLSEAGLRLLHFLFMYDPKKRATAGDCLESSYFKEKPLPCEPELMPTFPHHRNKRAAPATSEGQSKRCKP
structure (smiles),measurement,setting,value
COc1ccc(F)cc1-c1cc(NC(=O)C2CCCNC2)ncc1Cl (stereo not drawn) [CDK inhibitor 2],inhibition at 10 µM,[1]; average,79.7%
same,inhibition at 10 µM,[1]; experiment 1,76.7%
same,inhibition at 10 µM,[1]; experiment 2,82.8%
same,inhibition at 10 µM,[2]; average,65.6%
same,inhibition at 10 µM,[2]; experiment 1,61.9%
same,inhibition at 10 µM,[2]; experiment 2,69.3%
same,inhibition at 10 µM,[3]; average,92.7%
same,inhibition at 10 µM,[3]; experiment 1,92.3%
same,inhibition at 10 µM,[3]; experiment 2,93%
same,inhibition at 10 µM,[4]; average,83.4%
same,inhibition at 10 µM,[4]; experiment 1,81.2%
same,inhibition at 10 µM,[4]; experiment 2,85.7%
same,inhibition at 10 µM,[5]; average,40%
same,inhibition at 10 µM,[5]; experiment 1,37.7%
same,inhibition at 10 µM,[5]; experiment 2,42.4%
same,inhibition at 10 µM,[6]; average,77.1%
same,inhibition at 10 µM,[6]; experiment 1,76.2%
same,inhibition at 10 µM,[6]; experiment 2,78%
same,inhibition at 10 µM,[7]; average,58%
same,inhibition at 10 µM,[7]; experiment 1,65.9%
same,inhibition at 10 µM,[7]; experiment 2,50%
same,IC50,[8]; average (± SEM where n=3),3.5 ± 0.8 nM
same,inhibition at 10 µM,[8]; average,98.4%
same,IC50,[8]; experiment 1,5 nM
same,inhibition at 10 µM,[8]; experiment 1,99.1%
same,IC50,[8]; experiment 2,2.3 nM
same,inhibition at 10 µM,[8]; experiment 2,97.8%
same,IC50,[8]; experiment 3,3 nM
same,IC50,[9]; average (± SEM where n=3),20 ± 10 nM
same,inhibition at 10 µM,[9]; average,95.4%
same,IC50,[9]; experiment 1,8.3 nM
same,inhibition at 10 µM,[9]; experiment 1,94.8%
same,IC50,[9]; experiment 2,17 nM
same,inhibition at 10 µM,[9]; experiment 2,95.9%
same,IC50,[9]; experiment 3,47 nM
same,IC50,[10]; average (± SEM where n=3),17 ± 5 nM
same,inhibition at 10 µM,[10]; average,95.6%
same,IC50,[10]; experiment 1,9 nM
same,inhibition at 10 µM,[10]; experiment 1,96.5%
same,IC50,[10]; experiment 2,18 nM
same,inhibition at 10 µM,[10]; experiment 2,94.6%
same,IC50,[10]; experiment 3,25 nM
same,inhibition at 10 µM,[11]; average,49.3%
same,inhibition at 10 µM,[11]; experiment 1,41%
same,inhibition at 10 µM,[11]; experiment 2,57.6%
same,inhibition at 10 µM,[12]; average,41.2%
same,inhibition at 10 µM,[12]; experiment 1,31.4%
same,inhibition at 10 µM,[12]; experiment 2,51.1%
same,IC50,[13]; average (± SEM where n=3),540 ± 70 nM
same,inhibition at 10 µM,[13]; average,92.4%
same,IC50,[13]; experiment 1,407 nM
same,inhibition at 10 µM,[13]; experiment 1,93.4%
same,IC50,[13]; experiment 2,570 nM
same,inhibition at 10 µM,[13]; experiment 2,91.4%
same,IC50,[13]; experiment 3,648 nM
same,IC50,[14]; average (± SEM where n=3),100 ± 30 nM
same,IC50,[14]; experiment 1,51 nM
same,inhibition at 10 µM,[14]; experiment 1,89.7%
same,IC50,[14]; experiment 2,140 nM
same,inhibition at 10 µM,[14]; experiment 2,90.1%
same,IC50,[14]; experiment 3,117 nM
same,IC50,[15]; average (± SEM where n=3),90 ± 20 nM
same,inhibition at 10 µM,[15]; average,91.6%
same,IC50,[15]; experiment 1,57 nM
same,inhibition at 10 µM,[15]; experiment 1,90.5%
same,IC50,[15]; experiment 2,110 nM
same,inhibition at 10 µM,[15]; experiment 2,92.6%
same,IC50,[15]; experiment 3,99 nM
same,IC50,"[16]; CDK18/Y, average (± SEM where n=3)",140 ± 30 nM
same,IC50,"[16]; CDK18/Y, experiment 1",104 nM
same,inhibition at 10 µM,"[16]; CDK18/Y, experiment 1, read-out: Inhibition at 10µM (%)",93.5%
same,IC50,"[16]; CDK18/Y, experiment 2",210 nM
same,inhibition at 10 µM,"[16]; CDK18/Y, experiment 2, read-out: Inhibition at 10µM (%)",102%
same,IC50,"[16]; CDK18/Y, experiment 3",112 nM
same,inhibition at 10 µM,"[16]; read-out: Inhibition at 10µM (%), CDK18/Y, average",97.8%
same,inhibition at 10 µM,[17]; experiment 1,18.7%
same,inhibition at 10 µM,[17]; experiment 2,27.3%
same,inhibition at 10 µM,[18]; average,72.6%
same,inhibition at 10 µM,[18]; experiment 1,75.1%
same,inhibition at 10 µM,[18]; experiment 2,70.1%
same,IC50,[19]; average (± SEM where n=3),500 ± 200 nM
same,IC50,[19]; experiment 1,340 nM
same,IC50,[19]; experiment 2,230 nM
same,IC50,[19]; experiment 3,972 nM
same,inhibition at 10 µM,[19]; average,83.1%
same,inhibition at 10 µM,[19]; experiment 1,83.7%
same,inhibition at 10 µM,[19]; experiment 2,82.5%
